# Data published in patent US20180201594A1, “Compound pac-1 or salt thereof and pharmaceutical composition comprising same” (priority 2015, published 2018).
# What was measured:
# Caspase-3 = Caspase-3 protein expression in HGC-27 cells (immunofluorescence); format: cell-based; settings: n = 6
# Method: (§1) The sterilized cell transfer membrane was taken and placed into a 24-well plate, which was seeded with 1 mL (1×10^5 cells/mL) cell suspension, and cultured for 24 h. Drug-containing medium was added, The negative control groups and administration groups were set, with the experimental groups intervened for 24-48 h. The plate was washed with PBS, and fixed with 4% paraformaldehyde for 15 min. It was treated with 0.1% TritonX-100, and washed with PBS, blocked with 1:10 diluted normal serum blocking solution for 15 min. The plate was added 1:100 diluted primary antibody, placed at 4° C. overnight. The plate was washed with PBS, to which 1:100 diluted secondary antibodies was added and incubated at room temperature for 30 min. The plate was washed with PBS, to which 1:100 diluted SABC-FITC was added, and re-incubated at room temperature for additional 30 min. The unbound FITC was washed with PBS. We observed and taken pictures under fluorescence microscope, and analyzed the fluorescence intensity by Bioflux Montage software. 6 fields were selected randomly under microscope for each group and the integral optical density value of cells was calculated.
# HGC-27 cells = assay: Three-dimensional migration (Transwell assay), HGC-27; format: cell-based; settings: for Cell number (transmembrane cells): 24 h, n = 9
# Method: Starved cells were digested and collected, which were suspended in serum-free medium. The cell intensity was adjusted into 3×10^5 s cells/mL. 100 μL of the cell suspension was added into the upper chamber and 700 μL of medium with 10% serum to the lower chamber per well. According to the experimental design, 50 μL serum-free medium was added per well for the control group, 50 μL of drug-containing serum-free medium was added for the administration groups. They were continued to be cultured in the incubator for another 24 h. The upper chamber was taken, with methanol fixation for 30 min, dyed with Giemsa stain for 30 min, rinsed with clean water twice. The cells on the bottom membrane surface of the upper chamber were carefully wiped off with a wet cotton swab, dried in the air. With the bottom up, they were transferred onto glass slide and sealed with neutral gum. Under the microscope, nine random fields were taken and the transmembrane cells therein were counted. The average values were statistically calculated.
# [1] = In vivo pharmacokinetic comparison in rats
# Method: Twelve male Wistar rats were randomly divided into ZYS-1 group and PAC-1 group. These rats were fasted for 12 hours before administration, and fed water freely. After ZYS-1 and PAC-1 needle crystal were given at the dose of 60 mg/Kg, 0.5 mL orbital blood was collected at 0, 5, 20, 30, 45, 60, 120, 180, 240, 360, 480, 720 mins, centrifuged at 5000 r/min for 5 min. 200 μL plasma was taken. The plasma was added 3 mL acetone and vortexed for 1 min. After centrifuging at 15000 r/min for 5 min, the supernatant was collected and dried under nitrogen at 37° C., to which 200 μL acetonitrile was added to be reconstituted. After sonication for 10 min, the mixture was vortexed for 1 min, and filtered through 0.45 microporous filter membrane. The filtrate was tested by HPLC, and the plasma concentration at each time point was calculated.
# HUVEC = HUVEC tubule formation assay; format: cell-based
# Method: Tubule formation assay: the matrigel was thawed at 4° C. overnight, which was 1:1 diluted with serum-free ECM medium and coated onto 96-well plates. The diluted matrigel was sucked by precooled pipette gun tip, which was added into pre-cooled 96-well plates, with 50 μL per well. The matrigel was placed on ice for 5 min to make the matrigel surface level, and then the 96-well plates were put into a cell incubator at 37° C. for 1 h to cause gel coagulation. Trypsinize cells, the cells were counted and diluted with ECM medium. The cell density was adjusted to […], and the cells were seeded into coated 96-well plates with 100 μL per well. According to the MTT results, the ZYS-1 solution at different concentrations were formulated. 100 μL of the solutions were taken and added into the cell-seeded wells to make the final concentration at 2, 1, 0.5 μM. At the same time, the positive control was set as recombinant human endostatin (Endostar) and the negative control as without drugs but medium only. Each concentration of the experimental groups and the control groups all were set three replicates, which were placed and cultured in the incubator. After culturing 18 h, the culture was observed under microscope and taken the pictures to record the circumference, area of the generated tubes and the number of nodes as indicators for the formation of tubule. […]
# [2] = Solubility comparison of ZYS-1 and PAC-1 needle crystal (HPLC); format: physicochemical; settings: room temperature
# Method: The appropriate amounts of ZYS-1 and PAC-1 needle crystal were dissolved into the appropriate amount of methanol, absolute ethanol, 95% ethanol, acetonitrile, ethyl ether, ethyl acetate, propanol, acetone, respectively, and sonicated for 1 hour, then left at room temperature for 24 hours to obtain the oversaturated solution. After centrifugation at 4000 r/min for 5 min, the supernatant was diluted appropriately and filtered through a 0.45 μm needle filter. The concentration was determined by HPLC and the solubility was calculated.
# [3] = as above; format: physicochemical; settings: Water, room temperature
# VEGF = VEGF protein expression in HGC-27 cells (immunofluorescence); format: cell-based; settings: n = 6
# Method: as §1
# XIAP = XIAP protein expression in HGC-27 cells (immunofluorescence); format: cell-based; settings: n = 6
# Method: as §1
# [4] = Homo sapiens, HGC-27, 24 h, read-out: Inhibition Rate
# [5] = male Wistar rats, 60 mg/Kg, n = 6
smiles,measurement,setting,value
"C=CCc1cccc(/C=N/NC(=O)CN2CCN(Cc3ccccc3)CC2)c1O [ZYS-1, 1-Piperazineacetic acid, 4-(phenylmethyl)-2-[[2-hydroxy-3-(2-propen-1-yl)phenyl]methylene]]",Caspase-3 protein expression (integral optical density value),Caspase-3; 4 μM,37.26 ± 0.39
same,Caspase-3 protein expression (integral optical density value),Caspase-3; 8 μM,39.36 ± 1.20
same,Cell number (transmembrane cells),HGC-27 cells; 2 μM,33.00 ± 10.00
same,Cell number (transmembrane cells),HGC-27 cells; 4 μM,26.30 ± 13.37
same,Cell number (transmembrane cells),HGC-27 cells; 8 μM,22.44 ± 9.82
same,inhibition at 2 µM,HGC-27 cells; [4],24.6%
same,inhibition at 4 µM,HGC-27 cells; [4],39.9%
same,inhibition at 8 µM,HGC-27 cells; [4],48.7%
same,MRT(0-∞),[1]; [5],420.4914 ± 271.8423 h
same,T½ka,[1]; [5],22.9129 ± 6.3243 h
same,T½α,[1]; [5],209.5239 ± 129.5666 h
same,V/F,[1]; [5],0.0308 ± 0.0167 L
same,ka,[1]; [5],0.0324 ± 0.0098 h⁻¹
same,ke,[1]; [5],0.0048 ± 0.0033 h⁻¹
same,lagtime,[1]; [5],4.6861 ± 5.2184 h
same,AUC(0-inf),"[1]; male, Wistar, rat, plasma, 60 mg/kg, n = 6",724 ± 207 µg·h/mL
same,AUC,"[1]; male, Wistar, rat, plasma, 60 mg/kg, n = 6, read-out: AUC(0-tn)",389 ± 136 µg·h/mL
same,Cmax,"[1]; male, Wistar, rat, plasma, 60 mg/kg, n = 6, read-out: Cmax",2190 ± 127 ng/mL
same,MRT,"[1]; male, Wistar, rat, plasma, 60 mg/kg, n = 6, read-out: MRT(0-tn)",167 ± 51.5 h
same,Tmax,"[1]; male, Wistar, rat, plasma, 60 mg/kg, n = 6, read-out: Tmax",65 ± 9.44 h
same,inhibition of tubule formation compared with positive control 2.5 μg/mL Endostar,HUVEC; 2 μM ZYS-1 group,similar
same,effect on formation of endothelial cell tubules induced in vitro,"HUVEC; 2, 1, 0.5 μM, 18 h",strong inhibitory effect
same,Solubility,[2]; 95% ethanol,18.51 mg/mL
same,Solubility,[2]; Absolute ethanol,23.53 mg/mL
same,Solubility,[2]; Acetone,128.97 mg/mL
same,Solubility,[2]; Acetonitrile,28.74 mg/mL
same,Solubility,[2]; Chloroform,344.73 mg/mL
same,Solubility,[2]; Diethyl ether,6.31 mg/mL
same,Solubility,[2]; Ethyl acetate,40.08 mg/mL
same,Solubility,[2]; Methanol,35.15 mg/mL
same,Solubility,[2]; Propanol,25.55 mg/mL
same,Solubility,[3],0.0056 mg/mL
same,VEGF protein expression (integral optical density value),VEGF; 4 μM,31.17 ± 0.24
same,VEGF protein expression (integral optical density value),VEGF; 8 μM,30.51 ± 0.32
same,XIAP protein expression (integral optical density value),XIAP; 4 μM,38.22 ± 0.81
same,XIAP protein expression (integral optical density value),XIAP; 8 μM,36.27 ± 1.03
